In PubChem BioAssay (NCI):
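Protocol summary: plate cells (96-well), add compound at 5 concentrations, incubate 48 h, interpolate endpoints linearly. GI50: concentration for 50% inhibition of growth. The concentration for full growth arrest is given as TGI.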

Assays:
Assay in all cases: NCI tumour cell line growth inhibition, 48 h; in the data active means GI50 below about 0.43 µM; inactive means the rest
786-0 renal = test system: 786-0 renal
A498 renal = test system: A498 renal
A549 NSCLC = test system: A549 NSCLC
ACHN renal = test system: ACHN renal
CAKI-1 renal = test system: CAKI-1 renal
COLO 205 colon = test system: COLO 205 colon
DU-145 prostate = test system: DU-145 prostate
EKVX NSCLC = test system: EKVX NSCLC
HCC-2998 colon = test system: HCC-2998 colon
HCT-116 colon = test system: HCT-116 colon
HCT-15 colon = test system: HCT-15 colon
HL-60(TB) leukemia = test system: HL-60(TB) leukemia
HOP-62 NSCLC = test system: HOP-62 NSCLC
HOP-92 NSCLC = test system: HOP-92 NSCLC
HS 578T breast = test system: HS 578T breast
HT29 colon = test system: HT29 colon
IGROV1 ovarian = test system: IGROV1 ovarian
K-562 leukemia = test system: K-562 leukemia
KM12 colon = test system: KM12 colon
LOX IMVI melanoma = test system: LOX IMVI melanoma
M14 melanoma = test system: M14 melanoma
MALME-3M melanoma = test system: MALME-3M melanoma
MCF7 breast = test system: MCF7 breast
MDA-MB-231 breast = test system: MDA-MB-231 breast
MDA-MB-435 = test system: MDA-MB-435
MOLT-4 leukemia = test system: MOLT-4 leukemia
NCI-H226 lung = test system: NCI-H226 lung
NCI-H23 lung = test system: NCI-H23 lung
NCI-H460 lung = test system: NCI-H460 lung
NCI-H522 lung = test system: NCI-H522 lung
NCI/ADR-RES ovarian = test system: NCI/ADR-RES ovarian
OVCAR-3 ovarian = test system: OVCAR-3 ovarian
OVCAR-4 ovarian = test system: OVCAR-4 ovarian
OVCAR-5 ovarian = test system: OVCAR-5 ovarian
OVCAR-8 ovarian = test system: OVCAR-8 ovarian
PC-3 prostate = test system: PC-3 prostate
RPMI-8226 leukemia = test system: RPMI-8226 leukemia
RXF 393 renal = test system: RXF 393 renal
SF-268 CNS = test system: SF-268 CNS
SF-295 CNS = test system: SF-295 CNS
SF-539 CNS = test system: SF-539 CNS
SK-MEL-2 melanoma = test system: SK-MEL-2 melanoma
SK-MEL-28 melanoma = test system: SK-MEL-28 melanoma
SK-MEL-5 melanoma = test system: SK-MEL-5 melanoma
SK-OV-3 ovarian = test system: SK-OV-3 ovarian
SN12C renal = test system: SN12C renal
SNB-19 CNS = test system: SNB-19 CNS
SNB-75 CNS = test system: SNB-75 CNS
SW-620 colon = test system: SW-620 colon
T-47D breast = test system: T-47D breast
TK-10 renal = test system: TK-10 renal
U251 CNS = test system: U251 CNS
UACC-257 melanoma = test system: UACC-257 melanoma
UACC-62 melanoma = test system: UACC-62 melanoma
UO-31 renal = test system: UO-31 renal

Cc1c(N2C(=O)/C(=C\c3ccc(O)cc3)N=C2c2ccccc2)c(=O)n(-c2ccccc2)n1C
> 100 µM: TGI (786-0 renal) | TGI (A498 renal) | TGI (A549 NSCLC) | TGI (ACHN renal) | TGI (CAKI-1 renal) | TGI (COLO 205 colon) | TGI (DU-145 prostate) | TGI (EKVX NSCLC) | TGI (HCC-2998 colon) | TGI (HCT-116 colon) | TGI (HCT-15 colon) | TGI (HL-60(TB) leukemia) | TGI (HOP-62 NSCLC) | TGI (HOP-92 NSCLC) | TGI (HS 578T breast) | TGI (HT29 colon) | TGI (IGROV1 ovarian) | TGI (K-562 leukemia) | TGI (KM12 colon) | TGI (LOX IMVI melanoma) | TGI (M14 melanoma) | TGI (MALME-3M melanoma) | TGI (MCF7 breast) | TGI (MDA-MB-231 breast) | TGI (MDA-MB-435) | TGI (MOLT-4 leukemia) | TGI (NCI-H226 lung) | TGI (NCI-H23 lung) | TGI (NCI-H460 lung) | TGI (NCI-H522 lung) | TGI (NCI/ADR-RES ovarian) | TGI (OVCAR-3 ovarian) | TGI (OVCAR-4 ovarian) | TGI (OVCAR-5 ovarian) | TGI (OVCAR-8 ovarian) | TGI (PC-3 prostate) | TGI (RPMI-8226 leukemia) | TGI (RXF 393 renal) | TGI (SF-268 CNS) | TGI (SF-295 CNS) | TGI (SF-539 CNS) | TGI (SK-MEL-2 melanoma) | TGI (SK-MEL-28 melanoma) | TGI (SK-MEL-5 melanoma) | TGI (SK-OV-3 ovarian) | TGI (SN12C renal) | TGI (SNB-19 CNS) | TGI (SNB-75 CNS) | TGI (SW-620 colon) | TGI (T-47D breast) | TGI (TK-10 renal) | TGI (U251 CNS) | TGI (UACC-257 melanoma) | TGI (UACC-62 melanoma) | TGI (UO-31 renal)
inactive: GI50 (786-0 renal) > 100 µM | GI50 (A498 renal) > 100 µM | GI50 (A549 NSCLC) > 100 µM | GI50 (ACHN renal) > 100 µM | GI50 (CAKI-1 renal) > 100 µM | GI50 (COLO 205 colon) > 100 µM | GI50 (DU-145 prostate) > 100 µM | GI50 (EKVX NSCLC) > 100 µM | GI50 (HCC-2998 colon) > 100 µM | GI50 (HCT-116 colon) > 100 µM | GI50 (HCT-15 colon) > 100 µM | GI50 (HL-60(TB) leukemia) > 100 µM | GI50 (HOP-62 NSCLC) > 100 µM | GI50 (HOP-92 NSCLC) > 100 µM | GI50 (HS 578T breast) > 100 µM | GI50 (HT29 colon) > 100 µM | GI50 (IGROV1 ovarian) > 100 µM | GI50 (K-562 leukemia) > 100 µM | GI50 (KM12 colon) > 100 µM | GI50 (LOX IMVI melanoma) > 100 µM | GI50 (M14 melanoma) > 100 µM | GI50 (MALME-3M melanoma) > 100 µM | GI50 (MCF7 breast) > 100 µM | GI50 (MDA-MB-231 breast) > 100 µM | GI50 (MDA-MB-435) > 100 µM | GI50 (MOLT-4 leukemia) > 100 µM | GI50 (NCI-H226 lung) > 100 µM | GI50 (NCI-H23 lung) > 100 µM | GI50 (NCI-H460 lung) > 100 µM | GI50 (NCI-H522 lung) > 100 µM | GI50 (NCI/ADR-RES ovarian) > 100 µM | GI50 (OVCAR-3 ovarian) > 100 µM | GI50 (OVCAR-4 ovarian) > 100 µM | GI50 (OVCAR-5 ovarian) > 100 µM | GI50 (OVCAR-8 ovarian) > 100 µM | GI50 (PC-3 prostate) > 100 µM | GI50 (RPMI-8226 leukemia) > 100 µM | GI50 (RXF 393 renal) > 100 µM | GI50 (SF-268 CNS) > 100 µM | GI50 (SF-295 CNS) > 100 µM | GI50 (SF-539 CNS) > 100 µM | GI50 (SK-MEL-2 melanoma) > 100 µM | GI50 (SK-MEL-28 melanoma) > 100 µM | GI50 (SK-MEL-5 melanoma) > 100 µM | GI50 (SK-OV-3 ovarian) > 100 µM | GI50 (SN12C renal) > 100 µM | GI50 (SNB-19 CNS) > 100 µM | GI50 (SNB-75 CNS) > 100 µM | GI50 (SW-620 colon) > 100 µM | GI50 (T-47D breast) > 100 µM | GI50 (TK-10 renal) > 100 µM | GI50 (U251 CNS) > 100 µM | GI50 (UACC-257 melanoma) > 100 µM | GI50 (UACC-62 melanoma) > 100 µM | GI50 (UO-31 renal) > 100 µM
